Experimental data as given in patent US20260206759A1, “PYRAZOL-5-ETHER COMPOUND, AND PREPARATION METHOD THEREFOR AND USE THEREOF” (CAC NANTONG CHEMICAL CO., LTD., priority 2023, published 2026).

Columns and labels:
Assay type in all cases: in vivo
[1] = system: wheat powdery mildew (Blumeria graminis (DC.) Speer); test: Whole-plant pot assay, control effect against wheat powdery mildew; conditions: spray on wheat leaves, inoculation 24 h after treatment, assessed 10 days after inoculation
Description: Various kinds of pathogens were tested with the compounds of the present application. Unless otherwise specified in the examples and the present application, the preparation method of samples is as follows: 10 mg of the compound was weighed and dissolved in 1 mL DMF to prepare a 10000 ppm stock solution, and the stock solution was diluted with 0.05% Tween-80 aqueous solution to the required concentrations for activity tests.
In this example, the control effects of the prepared pyrazol-5-ether compounds against wheat powdery mildew (Blumeria graminis (DC.) Speer) were tested using the following method.
A whole-plant pot assay was employed for screening. The pesticide formulation was uniformly sprayed onto wheat leaves at the first true leaf stage using a laryngeal atomizer, with three replicates per treatment. The treated plant was air-dried naturally indoors. At 24 hours post-treatment, wheat powdery mildew spores (collected approximately 10 days after inoculation) were evenly dusted onto the compound-treated wheat leaves. Disease assessment was conducted 10 days after spore inoculation when symptom development stabilized in the control group. The assessment results were recorded on a 100-0 scale, where ‘100’ indicates complete disease absence and ‘0’ represents maximum disease severity.

[2] = system: cucumber powdery mildew (Erysiphe cichoracearum); test: Whole-plant pot assay, control effect against cucumber powdery mildew; conditions: 2.5 ppm, foliar spray on cucumber seedlings, inoculation 24 h after treatment
Description: In this example, the control effects of the prepared pyrazol-5-ether compounds against cucumber powdery mildew (Erysiphe cichoracearum) were tested using the following method.
(§1) A whole-plant pot assay was employed for screening. […] Greenhouse-cultivated cucumber seedlings at the two-leaf stage served as test hosts for cucumber powdery mildew (Erysiphe cichoracearum). The compounds of the present application were sprayed on the leaves at designed concentrations, and lank controls sprayed with water were also set, in triplicate. At 24 hours post-treatment, pathogen inoculation was conducted. After inoculation, the plants were maintained in controlled environment chamber for constant humidity culture (temperature: 25° C. day/20° C. night, relative humidity: 95%-99%). After 24 hours of incubation, the plants were transferred to the greenhouse. Control effect assessments were conducted on the compounds when disease symptoms fully developed in controls (typically one week). The assessment results were recorded on a 100-0 scale, where ‘100’ indicates complete disease absence and ‘0’ represents maximum disease severity.

[3] = system: soybean rust (Phakopsora pachyrhizi); test: Whole-plant pot assay, control effect against soybean rust; conditions: foliar spray on soybean plants, inoculation 24 h after treatment
Description: In this example, the control effects of the prepared pyrazol-5-ether compounds against soybean rust (Phakopsora pachyrhizi) were tested using the following method.
as §1, with “soybean plants” for “cucumber seedlings”, “soybean rust (Phakopsora pachyrhizi).” for “cucumber powdery mildew (Erysiphe cichoracearum).”, “blank” for “lank”, “recorded according to the A Manual of Assessment Keys for Plant Diseases compiled by the American Phytopathological Society” for “recorded”

SMILES | control effect against wheat powdery mildew ([1]; 10 ppm) [%] | control effect against wheat powdery mildew ([1]; 40 ppm) [%] | control effect against cucumber powdery mildew [2] [%] | control effect against soybean rust ([3]; 4 ppm) [%] | control effect against soybean rust ([3]; 10 ppm) [%]
CCN(C)/C=N/c1cc(C)c(Oc2cc(C(F)(F)F)nn2C)cc1C [Compound 16, (E)-N′-[4-(1-methyl-3-trifluoromethyl-1H-pyrazol-5-yloxy)-2,5-dimethylphenyl]-N-ethyl-N-met hylformamidine] | 81.48 | 96.30 | – | – | –
CCN(C)C=Nc1cc(C)c(Oc2cc(C)nn2C)cc1Cl [Compound 132] | 74.07 | – | – | – | –
CCN(C)C=Nc1cc(C)c(Oc2c(C)c(C)nn2C)cc1C [Compound 143] | 74.07 | – | – | – | –
CCN(C)/C=N/c1cc(Cl)c(Oc2cc(C(C)(C)C)nn2C)cc1C [KC1] | 0 | 22.22 | 0 | – | –
Cc1cc(Oc2cc(C(C)(C)C)nn2C)c(Cl)cc1/N=C/N1CCCC1 [KC2] | 0 | 0 | 0 | – | –
CCN(C)/C=N/c1cc(C)c(Oc2ccn(-c3ccc(Cl)cc3)n2)cc1C [KC3] | 0 | 59.26 | 22.22 | 0 | 22
